Experimental data: the NIST ThermoML archive (doi:10.1021/je301347v)
Numbers after ± are expanded uncertainties.

Assay: xn = mol fraction of the nth substance listed
Settings: 101 kPa, Liquid, Voltage change across transformer (no electrode)

CCCC[n+]1ccc(C)cc1.F[B-](F)(F)F [1-butyl-4-methylpyridinium tetrafluoroborate] + CCO
electrical conductivity [S/m]
Settings | 293.15 K | 303.15 K | 313.15 K | 323.15 K
x1 = 0.0448 | 0.696 ± 0.028 | 0.877 ± 0.035 | 1.01 ± 0.041 | 1.1 ± 0.044
x1 = 0.0521 | 0.791 ± 0.032 | 1.01 ± 0.04 | 1.22 ± 0.049 | 1.3 ± 0.052
x1 = 0.0608 | 0.893 ± 0.036 | 1.15 ± 0.046 | 1.42 ± 0.057 | 1.55 ± 0.062
x1 = 0.0701 | 0.991 ± 0.04 | 1.28 ± 0.051 | 1.58 ± 0.063 | 1.76 ± 0.07
x1 = 0.0843 | 1.15 ± 0.046 | 1.47 ± 0.059 | 1.82 ± 0.073 | 1.95 ± 0.078
x1 = 0.1046 | 1.29 ± 0.052 | 1.65 ± 0.066 | 2.08 ± 0.083 | 2.41 ± 0.1
x1 = 0.1232 | 1.39 ± 0.056 | 1.8 ± 0.072 | 2.26 ± 0.09 | 2.64 ± 0.11
x1 = 0.1347 | 1.44 ± 0.058 | 1.86 ± 0.074 | 2.33 ± 0.093 | 2.76 ± 0.11
x1 = 0.1551 | 1.5 ± 0.06 | 1.95 ± 0.078 | 2.47 ± 0.099 | 2.92 ± 0.12
x1 = 0.1602 | 1.51 ± 0.061 | 1.97 ± 0.079 | 2.49 ± 0.1 | 2.96 ± 0.12
x1 = 0.2251 | 1.59 ± 0.063 | 2.09 ± 0.084 | 2.67 ± 0.11 | 3.22 ± 0.13
x1 = 0.247 | 1.59 ± 0.063 | 2.09 ± 0.084 | 2.68 ± 0.11 | 3.26 ± 0.13
x1 = 0.3371 | 1.52 ± 0.061 | 2.02 ± 0.081 | 2.61 ± 0.1 | 3.22 ± 0.13
x1 = 0.3512 | 1.5 ± 0.06 | 2 ± 0.08 | 2.59 ± 0.1 | 3.22 ± 0.13
x1 = 0.3799 | 1.45 ± 0.058 | 1.95 ± 0.078 | 2.52 ± 0.1 | 3.17 ± 0.13
x1 = 0.3856 | 1.44 ± 0.058 | 1.94 ± 0.077 | 2.52 ± 0.1 | 3.16 ± 0.13
x1 = 0.4126 | 1.4 ± 0.056 | 1.88 ± 0.075 | 2.46 ± 0.098 | 3.1 ± 0.12
x1 = 0.5649 | 1.1 ± 0.044 | 1.37 ± 0.055 | 2.01 ± 0.08 | 2.63 ± 0.11
x1 = 0.6798 | 0.851 ± 0.034 | 1.02 ± 0.041 | 1.61 ± 0.064 | 2.16 ± 0.09
x1 = 0.7941 | 0.601 ± 0.024 | 0.696 ± 0.028 | 1.2 ± 0.048 | 1.68 ± 0.067
x1 = 0.9258 | 0.305 ± 0.012 | 0.38 ± 0.015 | 0.717 ± 0.029 | 1.06 ± 0.043
x1 = 0.9963 | 0.154 ± 0.0063 | 0.242 ± 0.01 | 0.459 ± 0.019 | 0.74 ± 0.03
x1 = 1 | 0.132 ± 0.0053 | 0.254 ± 0.01 | 0.439 ± 0.018 | 0.687 ± 0.027
